Assay results: US12077503B2, “Substituted cyclic amides and their use as herbicides” (FMC CORPORATION, priority 2015, dated 2024)

Tests used:
Assay type in all cases: in vivo
[1] = test system: ragweed (common ragweed, Ambrosia elatior); assay: Test A postemergence; conditions: Ambrosia artemisiifolia, post-emergence, 240 h, Postemergence, read-out: Plant response rating, Ragweed
Summary of the method: (§1)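 Each rating is a visual injury score from 0 to 100 given about 10 d after treatment, judged against untreated controls kept alongside in the greenhouse. In loam soil–sand blend, seeds got a preemergence directed soil spray, while postemergence plants were 2 to 10 cm tall at spraying.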

[2] = test system: wheat (Triticum aestivum); assay: Test A postemergence; conditions: Triticum aestivum, post-emergence, 240 h, Postemergence, read-out: Plant response rating, Wheat
Summary of the method: as §1

Kochia (Kochia scoparia) [3] = assay: Test A postemergence; conditions: Bassia scoparia, post-emergence, 240 h, Postemergence, read-out: Plant response rating, Kochia
Summary of the method: as §1

corn (Zea mays) = assay: Test A postemergence; conditions: Zea mays, post-emergence, 240 h, Postemergence
Summary of the method: as §1

[4] = test system: blackgrass (Alopecurus myosuroides); assay: Test A postemergence; conditions: Alopecurus myosuroides, post-emergence, 240 h, Postemergence, read-out: Plant response rating, Blackgrass
Summary of the method: as §1

[5] = test system: Galium (catchweed bedstraw, Galium aparine); assay: Test A postemergence; conditions: Galium, post-emergence, 240 h, Postemergence, read-out: Plant response rating, Galium
Summary of the method: as §1

[6] = test system: giant foxtail (Setaria faberii); assay: Test A postemergence; conditions: Setaria faberi, post-emergence, 240 h, Postemergence, read-out: Plant response rating, Foxtail, Giant
Summary of the method: as §1

[7] = test system: pigweed (Amaranthus retroflexus); assay: Test A postemergence; conditions: Amaranthus retroflexus, post-emergence, 240 h, Postemergence, read-out: Plant response rating, Pigweed
Summary of the method: as §1

[8] = test system: ryegrass, Italian (Italian ryegrass, Lolium multiflorum); assay: Test A postemergence; conditions: Lolium multiflorum, post-emergence, 240 h, Postemergence, read-out: Plant response rating, Ryegrass, Italian
Summary of the method: as §1

[9] = test system: barnyardgrass (Echinochloa crus-galli); assay: Test A postemergence; conditions: Echinochloa crus-galli, post-emergence, 240 h, Postemergence, read-out: Plant response rating, Barnyardgrass
Summary of the method: as §1

[10] = test system: ragweed (common ragweed, Ambrosia elatior); assay: Test A preemergence; conditions: Ambrosia artemisiifolia, pre-emergence, 240 h, Preemergence
Summary of the method: as §1

Kochia (Kochia scoparia) [11] = assay: Test A preemergence; conditions: Bassia scoparia, pre-emergence, 240 h, Preemergence
Summary of the method: as §1

[12] = test system: giant foxtail (Setaria faberii); assay: Test A preemergence; conditions: Setaria faberi, pre-emergence, 240 h, Preemergence
Summary of the method: as §1

[13] = test system: pigweed (Amaranthus retroflexus); assay: Test A preemergence; conditions: Amaranthus retroflexus, pre-emergence, 240 h, Preemergence
[14] = test system: ryegrass, Italian (Italian ryegrass, Lolium multiflorum); assay: Test A preemergence; conditions: Lolium multiflorum, pre-emergence, 240 h, Preemergence
Summary of the method: as §1

[15] = test system: barnyardgrass (Echinochloa crus-galli); assay: Test A preemergence; conditions: Echinochloa crus-galli, pre-emergence, 240 h, Preemergence
Summary of the method: as §1

[16] = test system: ducksalad (Heteranthera limosa); assay: Test B flooded paddy test; conditions: Heteranthera limosa, Flood, 250 g ai/ha; scale of 0 to 100 where 0 is no effect and 100 is complete control; read-out: Ducksalad plant response rating
Summary of the method: (§2)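 Response scored visually against untreated controls, 0 = no effect and 100 = complete control, 13–15 d after treatment in the greenhouse. Compounds added to paddy water held 3 cm above soil surface. Treatment given at 2-leaf stage.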

rice (Oryra sativa) = assay: Test B flooded paddy test; conditions: Oryza sativa, Flood, 250 g ai/ha; scale of 0 to 100 where 0 is no effect and 100 is complete control; read-out: Rice plant response rating
Summary of the method: as §2

[17] = test system: sedge, umbrella (small-flower umbrella sedge, Cyperus difformis); assay: Test B flooded paddy test; conditions: Cyperus difformis, Flood, 250 g ai/ha; scale of 0 to 100 where 0 is no effect and 100 is complete control; read-out: Sedge, Umbrella plant response rating
Summary of the method: as §2

[18] = test system: barnyardgrass (Echinochloa crus-galli); assay: Test B flooded paddy test; conditions: Echinochloa crus-galli, Flood, 250 g ai/ha; scale of 0 to 100 where 0 is no effect and 100 is complete control; read-out: Barnyardgrass plant response rating
Summary of the method: as §2

[19] = 125 g ai/ha, visual injury after approximately 10 d, 0 to 100 scale where 0 is no effect and 100 is complete control
[20] = 31 g ai/ha, visual injury after approx. 10 d, 0 to 100 scale, 0 no effect, 100 complete control

Work on CC(C)Oc1cc([C@H]2CN(C)C(=O)[C@@H]2C(=O)Nc2cccc(F)c2F)cc(C(F)(F)F)c1 [Compound 972] yielded a pest or weed control at 125 g/ha [1, 19] of 30%, a pest or weed control at 31 g/ha [1, 20] of 0% and a plant injury at 125 g/ha [2, 19] of 40%. The plant injury at 31 g/ha [2, 20] was 20%, the pest or weed control at 125 g/ha (Kochia (Kochia scoparia) [3]; [19]) was 0% and the pest or weed control at 31 g/ha (Kochia (Kochia scoparia) [3]; [20]) was 0%. The Corn plant response rating (crop injury, 0 = no effect, 100 = complete kill) at 125 g/ha (corn (Zea mays); [19]) was 60%, the Corn plant response rating (crop injury, 0 = no effect, 100 = complete kill) at 31 g/ha (corn (Zea mays); [20]) was 20% and the pest or weed control at 125 g/ha [4, 19] was 0%. The pest or weed control at 31 g/ha [4, 20] was 0%, the pest or weed control at 125 g/ha [5, 19] was 30% and the pest or weed control at 31 g/ha [5, 20] was 0%. It also gave a pest or weed control at 125 g/ha [6, 19] of 60%, a pest or weed control at 31 g/ha [6, 20] of 30% and a pest or weed control at 125 g/ha [7, 19] of 30%. The pest or weed control at 31 g/ha [7, 20] was 20%, the pest or weed control at 125 g/ha [8, 19] was 20% and the pest or weed control at 31 g/ha [8, 20] was 0%. It also gave a pest or weed control at 125 g/ha [9, 19] of 50%, a pest or weed control at 31 g/ha [9, 20] of 50% and a pest or weed control at 125 g/ha ([10]; 125 g ai/ha, visual injury rating after approximately 10 d, read-out: Ragweed plant response rating (0 to 100 scale, 0 is no effect, 100 is complete control)) of 20%. It also gave a pest or weed control at 31 g/ha ([10]; 31 g ai/ha, 0 to 100 scale (0 no effect, 100 complete control), read-out: Plant response rating, Ragweed) of 0%, a pest or weed control at 125 g/ha (Kochia (Kochia scoparia) [11]; 125 g ai/ha, visual injury rating after approximately 10 d, read-out: Kochia plant response rating (0 to 100 scale, 0 is no effect, 100 is complete control)) of 0% and a pest or weed control at 31 g/ha (Kochia (Kochia scoparia) [11]; 31 g ai/ha, 0 to 100 scale (0 no effect, 100 complete control), read-out: Plant response rating, Kochia) of 0%. It also gave a pest or weed control at 125 g/ha ([12]; 125 g ai/ha, visual injury rating after approximately 10 d, read-out: Foxtail, Giant plant response rating (0 to 100 scale, 0 is no effect, 100 is complete control)) of 80%, a pest or weed control at 31 g/ha ([12]; 31 g ai/ha, 0 to 100 scale (0 no effect, 100 complete control), read-out: Plant response rating, Foxtail, Giant) of 80% and a pest or weed control at 125 g/ha ([13]; 125 g ai/ha, visual injury rating after approximately 10 d, read-out: Pigweed plant response rating (0 to 100 scale, 0 is no effect, 100 is complete control)) of 0%. For the same molecule, the pest or weed control at 31 g/ha ([13]; 31 g ai/ha, 0 to 100 scale (0 no effect, 100 complete control), read-out: Plant response rating, Pigweed) was 0%, the pest or weed control at 125 g/ha ([14]; 125 g ai/ha, visual injury rating after approximately 10 d, read-out: Ryegrass, Italian plant response rating (0 to 100 scale, 0 is no effect, 100 is complete control)) was 90% and the pest or weed control at 31 g/ha ([14]; 31 g ai/ha, 0 to 100 scale (0 no effect, 100 complete control), read-out: Plant response rating, Ryegrass, Italian) was 50%. For the same molecule, the pest or weed control at 125 g/ha ([15]; 125 g ai/ha, visual injury rating after approximately 10 d, read-out: Barnyardgrass plant response rating (0 to 100 scale, 0 is no effect, 100 is complete control)) was 80%, the pest or weed control at 31 g/ha ([15]; 31 g ai/ha, 0 to 100 scale (0 no effect, 100 complete control), read-out: Plant response rating, Barnyardgrass) was 70% and the pest or weed control at 250 g/ha [16] was 85%. For the same molecule, the pest or weed control at 250 g/ha (rice (Oryra sativa)) was 50%, the pest or weed control at 250 g/ha [17] was 0% and the pest or weed control at 250 g/ha [18] was 80%.
